Laboratory results published in US20220242846A1, “ISOINDOLINONE COMPOUNDS” (Monte Rosa Therapeutics AG, priority 2019, published 2022).

Columns and labels:
IKZF3 = target: T1, IKZF3 (Homo sapiens, UniProt Q9UKT9); assay: Selectivity determination by Western Blot assay in MM1S cells: IKZF3; format: cell-based; parameters: key: A represents a no degradation observed at 30 μM; B represents trace degradation at 30 μM (below 20%); C represents weak degradation at 30 μM (below 50%); D represents degradation at 30 μM (>90%); E represents degradation at 3 μM (>90%); F represents degradation at 0.3 μM (>90%); conditions: MM1S cells, 0.3, 3 and 30 μM, 6 hours
T1 construct: MM1S cells were purchased from ATCC (cat. Number CRL-2974); endogenous in cells; host or cells: MM1S (ATCC CRL-2974)
Protocol: (§1) CK1alpha/Ikaros/Aiolos/ZFP91 Selectivity determination by Western Blot Assay
(§2) MM1S cells were purchased from ATCC (cat. Number CRL-2974), sub-cultured in 90% RPMI 1640 with 10% FBS, supplemented with 1× P/S and incubated at 37° C., 5% CO2. Compounds were stored as 10 mM DMSO stock. For the assay, MM1S cells (3 million cells/well) were plated in 6-well plates and incubated over night. Cells were treated with respective compounds using a serial dilution: 0.3 μM, 3 μM and 30 μM as well as a vehicle only (DMSO) control for 6 hours. Media with suspension cells was subsequently transferred to 15 mL conical tubes, wells rinsed twice with ice-cold PBS and merged with cell suspension in respective 15 mL conical tube. Cells were spinned down, supernatant aspirated, pellets resuspended in ice-cold PBS and transferred to microtubes. Cells were spinned down, supernatant aspirated and pellets resuspended in 120 μL RIPA lysis buffer supplemented with protease and phosphatase inhibitors. Cell lysates were incubated on ice for 20 minutes followed by centrifugation at >20,000×g for 5 mM. Supernatants were transferred to fresh microtubes and stored at −80° C. Total protein concentration was determined using a BCA assay with a BSA standard curve and concentration of all samples was adjusted to 1 mg/mL. 25 μL 4× LDS sample buffer supplemented with 100 mM DTT was added to 75 μL sample. Samples were centrifuged (8,000×g, 1 min) and incubated at 95° C. for […] followed by another centrifugation step (8,000×g, 1 mM). 20 μL of each sample was loaded on a 4-12% gel alongside a protein molecular weight marker. Gels were run in the presence of MOPS buffer at 80 Volts for […], followed by 120 Volts for 1.5 h and proteins subsequently transferred onto nitrocellulose membranes at 20 Volts for 7 mM using an iBlot2 Gel Transfer Device. Membranes were then cut horizontally into two pieces, covering 80-50 kDa and 50-25 kDa. Blocking the membranes was performed by gently shaking in 5% (w/v) skim milk in TSB-T for 1 hr at room temperature. All primary antibodies were used at a 1/1000 in 5% (w/v) BSA dissolved in TBST and incubated with membranes over night at 4° C. After three washes with 1× TBST for 5 mM, HRP-coupled secondary antibodies diluted in 5% (w/v) BSA/TBST (Goat Anti-Rb IgG, dil. 1/10,000; Goat Anti-Mouse IgG, dil. 1/5000) were added for 1 hr at room temperature. After three washes with 1× TBST (5 minutes each), membranes were incubated with ECL reagent for 1 mM at room temperature. Chemiluminescence signals were then detected using a LAS-4000 system with default settings and signals quantified using Image Studio Lite software (version 5.2). Membrane parts previously incubated with antibody against CK1alpha were stripped off antibodies by incubating with stripping buffer for 30 minutes followed by three washed with TBST (5 mM each), blocking with 5% (w/v) skim milk for 1 hr, and incubation with primary antibody against GAPDH overnight at 4° C. Subsequent washes, incubation with secondary antibody and signal acquisition were performed as described above.
(§3) Table 5 assigns each compound a code indicating the ability for the degradation of IKZF1, IKZF3, CK1alpha and ZFP91: A, B, C, D, E or F. According to the code, A represents a no degradation observed at 30 μM, B represents trace degradation at 30 μM (below 20%), C represents weak degradation at 30 μM (below 50%), D represents degradation at 30 μM (>90%), E represents degradation at 3 μM (>90%) and F represents degradation at 0.3 μM (>90%).

ZFP91 = target: T2, ZFP91 (Homo sapiens, UniProt Q96JP5); assay: Selectivity determination by Western Blot assay in MM1S cells: ZFP91; format: cell-based; parameters: key: A represents a no degradation observed at 30 μM; B represents trace degradation at 30 μM (below 20%); C represents weak degradation at 30 μM (below 50%); D represents degradation at 30 μM (>90%); E represents degradation at 3 μM (>90%); F represents degradation at 0.3 μM (>90%); conditions: MM1S cells, 0.3, 3 and 30 μM, 6 hours
T2 construct: MM1S cells were purchased from ATCC (cat. Number CRL-2974); endogenous in cells; host or cells: MM1S (ATCC CRL-2974)
Protocol: as §1, §2, §3

T2 sequence (Q96SW2 whole entry partner): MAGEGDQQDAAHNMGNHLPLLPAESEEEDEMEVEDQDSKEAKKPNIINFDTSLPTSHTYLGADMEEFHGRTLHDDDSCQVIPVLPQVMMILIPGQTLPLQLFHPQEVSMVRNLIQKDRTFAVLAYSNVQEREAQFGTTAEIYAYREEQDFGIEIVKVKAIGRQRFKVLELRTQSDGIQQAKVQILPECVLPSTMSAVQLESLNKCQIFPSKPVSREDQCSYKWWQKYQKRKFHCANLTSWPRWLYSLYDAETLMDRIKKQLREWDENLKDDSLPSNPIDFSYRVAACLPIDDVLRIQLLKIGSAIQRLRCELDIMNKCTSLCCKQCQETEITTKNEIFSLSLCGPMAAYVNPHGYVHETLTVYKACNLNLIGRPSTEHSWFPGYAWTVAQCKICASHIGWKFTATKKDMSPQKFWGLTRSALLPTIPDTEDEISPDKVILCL
T2 sequence (Q16531 2-1140 partner limits assumed): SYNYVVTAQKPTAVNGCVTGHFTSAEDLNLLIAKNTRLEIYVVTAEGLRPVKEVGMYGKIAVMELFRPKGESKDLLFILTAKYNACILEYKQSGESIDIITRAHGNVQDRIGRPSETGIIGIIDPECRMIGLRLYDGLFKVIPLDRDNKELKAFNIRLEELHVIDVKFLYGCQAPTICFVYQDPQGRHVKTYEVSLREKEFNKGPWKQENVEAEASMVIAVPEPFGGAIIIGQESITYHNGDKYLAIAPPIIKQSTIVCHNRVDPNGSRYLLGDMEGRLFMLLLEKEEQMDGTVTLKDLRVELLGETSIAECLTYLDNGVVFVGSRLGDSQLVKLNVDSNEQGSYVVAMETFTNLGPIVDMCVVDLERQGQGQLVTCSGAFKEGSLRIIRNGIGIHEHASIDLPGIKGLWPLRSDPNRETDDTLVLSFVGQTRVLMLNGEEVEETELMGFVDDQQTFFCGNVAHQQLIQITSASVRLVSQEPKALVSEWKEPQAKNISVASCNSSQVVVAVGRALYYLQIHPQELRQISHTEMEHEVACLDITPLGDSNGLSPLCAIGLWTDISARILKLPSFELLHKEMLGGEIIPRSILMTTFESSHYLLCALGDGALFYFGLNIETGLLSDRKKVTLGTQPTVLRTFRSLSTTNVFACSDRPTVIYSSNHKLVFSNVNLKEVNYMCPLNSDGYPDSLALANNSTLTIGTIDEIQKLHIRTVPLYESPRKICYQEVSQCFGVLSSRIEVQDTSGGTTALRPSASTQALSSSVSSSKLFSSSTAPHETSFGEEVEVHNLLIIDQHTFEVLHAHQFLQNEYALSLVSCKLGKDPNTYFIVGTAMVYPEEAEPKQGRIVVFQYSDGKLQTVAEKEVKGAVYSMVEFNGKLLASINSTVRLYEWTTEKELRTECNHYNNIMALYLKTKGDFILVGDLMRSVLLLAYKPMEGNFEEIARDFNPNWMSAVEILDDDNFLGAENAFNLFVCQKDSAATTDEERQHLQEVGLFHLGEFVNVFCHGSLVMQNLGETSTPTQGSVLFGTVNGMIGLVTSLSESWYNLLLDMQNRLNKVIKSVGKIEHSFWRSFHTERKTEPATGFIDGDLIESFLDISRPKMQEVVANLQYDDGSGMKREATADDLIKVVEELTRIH
T2 sequence (Q96JP5 2-570 limits assumed): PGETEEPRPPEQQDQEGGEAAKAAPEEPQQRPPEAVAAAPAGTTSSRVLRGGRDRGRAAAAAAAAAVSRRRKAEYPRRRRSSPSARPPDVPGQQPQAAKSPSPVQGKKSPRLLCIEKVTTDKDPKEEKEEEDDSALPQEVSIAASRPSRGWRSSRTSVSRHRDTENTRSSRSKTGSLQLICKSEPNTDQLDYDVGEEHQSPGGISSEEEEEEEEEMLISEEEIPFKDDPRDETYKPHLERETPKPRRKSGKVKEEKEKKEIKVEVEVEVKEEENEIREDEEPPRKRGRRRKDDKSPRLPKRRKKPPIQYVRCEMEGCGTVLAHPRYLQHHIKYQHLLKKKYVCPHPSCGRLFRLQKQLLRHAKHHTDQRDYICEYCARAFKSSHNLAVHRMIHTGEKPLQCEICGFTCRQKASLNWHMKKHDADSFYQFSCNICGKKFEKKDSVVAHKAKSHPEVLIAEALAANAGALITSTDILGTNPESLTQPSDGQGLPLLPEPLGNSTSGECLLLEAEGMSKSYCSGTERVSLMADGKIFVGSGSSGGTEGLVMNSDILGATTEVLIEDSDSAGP
T1 sequence (Q96SW2 whole entry partner): as the sequence (Q96SW2 whole entry partner) above
T1 sequence (Q16531 2-1140 partner limits assumed): as the sequence (Q16531 2-1140 partner limits assumed) above
T1 sequence (Q9UKT9 whole entry): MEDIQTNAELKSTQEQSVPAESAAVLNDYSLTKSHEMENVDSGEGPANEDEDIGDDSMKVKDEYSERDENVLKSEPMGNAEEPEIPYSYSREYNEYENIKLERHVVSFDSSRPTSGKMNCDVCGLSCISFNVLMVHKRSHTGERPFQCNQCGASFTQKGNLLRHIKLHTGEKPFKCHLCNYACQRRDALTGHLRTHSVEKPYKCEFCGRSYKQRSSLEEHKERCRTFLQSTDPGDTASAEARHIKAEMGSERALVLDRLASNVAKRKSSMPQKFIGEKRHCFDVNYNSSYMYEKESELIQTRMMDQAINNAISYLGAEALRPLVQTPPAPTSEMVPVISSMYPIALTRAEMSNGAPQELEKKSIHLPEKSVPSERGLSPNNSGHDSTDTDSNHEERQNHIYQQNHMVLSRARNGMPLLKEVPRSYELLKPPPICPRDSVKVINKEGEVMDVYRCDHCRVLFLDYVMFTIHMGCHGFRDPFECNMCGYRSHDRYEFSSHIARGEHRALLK

IKZF3 degradation code (IKZF3) | ZFP91 degradation code (ZFP91) | Structure (SMILES)
A | A | Cc1ccc(NC(=O)NCc2ccc3c(c2)C(=O)N(C2CCC(=O)NC2=O)C3)c(Cl)c1Cl (centres unmarked) [Compound 87]
A | A | Cc1cc(C)c(NC(=O)NCc2ccc3c(c2)C(=O)N(C2CCC(=O)NC2=O)C3)cc1Cl (centres unmarked) [Compound 85]
A | A | Cc1c(Cl)cc(NC(=O)NCc2ccc3c(c2)C(=O)N(C2CCC(=O)NC2=O)C3)cc1CN1CCOCC1 (centres unmarked) [Compound 82]
A | A | Cc1c(Cl)cc(NC(=O)NCc2ccc3c(c2)C(=O)N(C2CCC(=O)NC2=O)C3)cc1CN(C)C (centres unmarked) [Compound 75]

Structure (SMILES) | IKZF3 degradation code (IKZF3) | ZFP91 degradation code (ZFP91)
O=C1CCC(N2Cc3ccc(CNC(=O)Nc4cccc(CN5CCOCC5)c4)cc3C2=O)C(=O)N1 (centres unmarked) [Compound 105] | A | B (B represents trace degradation at 30 μM (below 20%))
Cc1ccc(NC(=O)NCc2ccc3c(c2)C(=O)N(C2CCC(=O)NC2=O)C3)cc1Cl (centres unmarked) [Compound 8] | B (B represents trace degradation at 30 μM (below 20%)) | B (B represents trace degradation at 30 μM (below 20%))
Cc1c(Cl)cc(NC(=O)NCc2ccc3c(c2)C(=O)N(C2CCC(=O)NC2=O)C3)cc1CC1COCOC1 (centres unmarked) [Compound 132] | A | C (C represents weak degradation at 30 μM (below 50%))
